Measurements published in the supplement of paper PMC10307832.

Assays:
Test in all cases: relative viability (nuclei count vs DMSO), 5 days (fraction); higher = more cells survive
[1] = compound: CC1=CC(=C(N1C2=CC=C(C=C2)Cl)C)C(=O)CN3CCCCC3 [IU1-47] + Cc1cc(Nc2cc(N3CCN(C)CC3)nc(Sc3ccc(NC(=O)C4CC4)cc3)n2)n[nH]1 [Tozasertib] (partner 0.1 µM)
Procedure, shortened: (§1)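 Lung cancer cell lines were pin-tool dosed in 1536-well plates on the day after seeding, with either a lone drug or a fixed anchor-drug dose plus five library-drug doses (not always all listed) in √10 steps. Nuclei were counted on 4× images after 5 days. Relative viability is the ratio of treated-well to vehicle-well nuclei counts, with each value a median of duplicate plates.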

[2] = compound: Cc1nc(C(=O)NCC(=O)O)c(O)c2ccc(Oc3ccccc3)cc12 [FG-4592] + CC(=O)c1c(C)c2cnc(Nc3ccc(N4CCNCC4)cn3)nc2n(C2CCCC2)c1=O [Palbociclib] (partner 0.5 µM)
Procedure, shortened: as §1

[3] = compound: Cc1nc(C(=O)NCC(=O)O)c(O)c2ccc(Oc3ccccc3)cc12 [FG-4592] + CC1(C)CCC(c2ccc(Cl)cc2)=C(CN2CCN(c3ccc(C(=O)NS(=O)(=O)c4ccc(N[C@H](CCN5CCOCC5)CSc5ccccc5)c(S(=O)(=O)C(F)(F)F)c4)cc3)CC2)C1 [Navitoclax] (partner 0.5 µM)
Procedure, shortened: as §1

[4] = compound: Cc1nc(C(=O)NCC(=O)O)c(O)c2ccc(Oc3ccccc3)cc12 [FG-4592] + C[C@]1(O)C[C@@H](c2nc(-c3ccc4ccc(-c5ccccc5)nc4c3)c3c(N)nccn32)C1 [Linsitinib] (partner 1 µM)
Procedure, shortened: as §1

| Cell Line | relative viability ([1]; first compound 0.08 µM) | relative viability ([1]; first compound 0.253 µM) | relative viability ([1]; first compound 0.8 µM) | relative viability ([1]; first compound 2.53 µM) | relative viability ([1]; first compound 8 µM) | relative viability ([2]; first compound 0.08 µM) | relative viability ([2]; first compound 0.253 µM) | relative viability ([2]; first compound 0.8 µM) | relative viability ([2]; first compound 2.53 µM) | relative viability ([2]; first compound 8 µM) | relative viability ([3]; first compound 0.08 µM) | relative viability ([3]; first compound 0.253 µM) | relative viability ([3]; first compound 0.8 µM) | relative viability ([3]; first compound 2.53 µM) | relative viability ([3]; first compound 8 µM) | relative viability ([4]; first compound 0.08 µM) | relative viability ([4]; first compound 0.253 µM) | relative viability ([4]; first compound 0.8 µM) | relative viability ([4]; first compound 2.53 µM) | relative viability ([4]; first compound 8 µM) |
| --- | --- | --- | --- | --- | --- | --- | --- | --- | --- | --- | --- | --- | --- | --- | --- | --- | --- | --- | --- | --- |
| ChaGo-K-1 | 0.203 | 0.216 | 0.263 | 0.215 | 0.228 | 0.9 | 0.878 | 1.01 | 0.914 | 0.958 | 1.04 | 1.03 | 0.708 | 1.15 | 0.54 |  |  |  |  |  |
| NCI-H522 | 0.52 | 0.523 | 0.516 | 0.489 | 0.519 | 0.97 | 0.884 |  | 1.1 | 0.811 |  |  |  |  |  |  |  |  |  |  |
| NCI-H1299 |  |  |  |  |  |  |  |  |  |  | 1.07 | 1.03 | 1.02 | 1.02 | 1.1 | 0.979 | 0.939 | 0.956 | 0.989 | 0.964 |
| NCI-H1650 | 0.399 | 0.489 | 0.363 | 0.382 | 0.264 | 0.259 | 0.292 | 0.304 | 0.346 | 0.332 | 1.23 | 1.12 | 1.37 | 1.17 | 1.24 |  |  |  |  |  |
| NCI-H1648 | 0.518 | 0.569 | 0.476 | 0.338 | 0.43 | 0.248 | 0.29 |  | 0.282 | 0.262 |  |  |  |  |  |  |  |  |  |  |
| NCI-H596 | 0.935 | 0.978 | 0.864 | 0.887 | 0.954 |  |  |  |  |  | 0.897 | 0.914 |  | 0.991 | 0.817 | 1.28 | 1.01 |  | 1.04 | 0.983 |
| NCI-H2342 | 0.493 | 0.608 | 0.602 | 0.512 | 0.594 | 0.519 | 0.503 | 0.47 | 0.538 | 0.489 |  |  |  |  |  |  |  |  |  |  |
| SW 900 | 0.512 | 0.54 | 0.615 | 0.439 | 0.469 |  | 0.525 |  | 0.568 | 0.5 |  |  |  |  |  |  |  |  |  |  |
| A549 |  |  |  |  |  |  |  |  |  |  | 1.25 | 1.21 | 1.27 | 1.28 | 1.08 | 0.476 | 0.549 |  | 0.546 | 0.588 |
| NCI-H2170 | 0.714 | 0.786 | 0.762 | 0.892 | 0.676 | 0.423 | 0.351 | 0.345 | 0.381 | 0.282 | 0.708 | 0.593 | 0.691 | 0.485 | 0.322 |  |  |  |  |  |
| NCI-H661 | 0.354 | 0.373 | 0.355 | 0.358 | 0.375 | 0.397 | 0.408 | 0.373 | 0.397 | 0.396 |  |  |  |  |  | 0.475 | 0.588 | 0.55 | 0.678 | 0.446 |
| NCI-H1563 |  |  |  |  |  |  |  |  |  |  |  |  |  |  |  | 1.27 | 1.24 | 1.19 | 1.27 | 1.22 |
| ABC-1 | 0.188 | 0.165 | 0.158 |  | 0.193 | 0.718 | 0.503 |  | 0.537 | 0.437 |  |  |  |  |  | 0.92 |  | 0.722 | 0.8 | 0.844 |
| LCLC-103H | 0.576 | 0.586 | 0.531 | 0.503 | 0.451 | 0.474 | 0.408 | 0.414 | 0.467 | 0.454 |  |  |  |  |  | 0.969 | 1.1 | 0.89 | 1.1 | 0.854 |
